A word on the solubility: it is how much of the substance goes into solution per volume. Low readings indicate a poorly soluble substance, high ones a readily soluble substance.

The results in this text go back to US10014546B2 (priority 2012, dated 2018).

Like-named read-outs stand apart in the source and are kept apart here. A value given as a limit tells only on which side of the number the result lay.

The format of data set [1] is physicochemical.

With `Oc1cccc2c1[O][Ti-2]13([O]2)([O]c2cccc(O)c2[O]1)[O]c1cccc(O)c1[O]3.[K+].[Na+]` [Ti(pyrogallate)^2−/3−, Sodium potassium titanium(IV) trispyrogallate], the “E1/2, V vs. RHE” value in data set [1] (pH 9.8) is reported as −0.55 V vs. RHE.
With “iron tris-(α-hydroxyacetate) [Fe^III/II(α-hydroxyacetate)3]”, the “E1/2, V vs. RHE” value in data set [1] (pH 8.1) is −0.50 V vs. RHE.
Turning to “titanium mono-lactate [Ti^IV/III(lactate)1]”, the “E1/2, V vs. RHE” value in data set [1] (pH 3.6) is given as −0.34 V vs. RHE; in data set [1] (pH 5.6) it was −0.40 V vs. RHE; in data set [1] (pH 9) it was −0.54 V vs. RHE.
Take iron tris-malate [Fe^III/II(malate)3]: the “E1/2, V vs. RHE” value in data set [1] (pH 9.2) is −0.30 V vs. RHE.
Consider “titanium bis-lactate [Ti^IV/III(lactate)2]”, for which the “E1/2, V vs. RHE” value is given as −0.03 V vs. RHE in data set [1] (pH 2), −0.40 V vs. RHE in data set [1] (pH 3.6) and −0.40 V vs. RHE in data set [1] (pH 9).
Turning to `O.O.O.O.O.O.[Fe+3]` [Fe^III/II(H2O)6, reference compound], the “E1/2, V vs. RHE” value in data set [1] (pH 0) is listed as “+0.77 V vs. RHE”.
As for `CC(O)C(=O)[O-].CC(O)C(=O)[O-].O=C([O-])c1ccccc1O.[Ti+3]` [Ti^IV/III(lactate)2(salicylate), titanium bis-lactate mono-salicylate], the solubility in “physchem” is no less than 1500 mM.
With “Sodium titanium(IV) triscitrate [Ti(citrate)3^2−/3−]”, the “E1/2, V vs. RHE” value in data set [1] (pH 5) is on record as −0.04 V vs. RHE.
